Assay results from patent US4892887A, “N,N'-bis(sulfonyl)hydrazines having antineoplastic activity” (Yale University, priority 1988, dated 1990).
Where two headings read alike, the source gives them in different places.

Key:
B16 melanoma = assay: Survival time of mice bearing the B16 melanoma; assay type: in vivo, mouse (C57B1 mice); conditions: for Max. % T/C: Table IV, B16, at optimum effective daily dose; for Av. Change in wt., %: at optimum effective daily dose, B16 mice
Protocol: This tumor was propagated in C57B1mice. Transplantation was carried out by removing tumors from donor mice bearing 14-day subcutaneous tumor growths. The tissue was fragmented to make a well-dispersed cellular suspension and diluted with Fischer's medium without serum so that one gram of tissue was suspended in 5 ml of solution. A portion (0.2 ml) of the resulting cell suspension was injected intraperitoneally into each recipient animal. All compounds were administered over a wide range of dosage levels by intraperitoneal injection, beginning 24 hours after tumor implantation, once daily for 6 consecutive days. The test compounds were injected as fine suspensions following homogenization in 2 to 3 drops of 20% aqueous Tween 80 and then made up to volume with isotonic saline. […] Mice were weighed during the course of the experiments, and the percent change in body weight from onset to termination of therapy was used as an indication of drug toxicity. Determination of the sensitivity of neoplasms to these agents was based on the prolongation of survival time afforded by the drug treatments.
^a Administered once daily for six consecutive days, beginnign 24
hours after tumor transplanation, with 5 animals being used per group.
^b Average change in body weight from onset to termination of therapy
^c % T/C = average survival time of treated/control animals ×
100. Each value represents the average of 5 animals per group.

[1] = Alkylation of 4-(4-nitrobenzyl)pyridine, absorbance at 540 nm (modified Wheeler and Chumley); conditions: for Relative Alkylating Activity: (O.D. test sample/O.D. compound 8) × 100, pH 7.4, 37°C, 540 nm; for absorbance at 540 nm (alkylating activity): comparison compounds
Protocol: Since compounds 1-13 were conceived as prodrugs of the alkylating species (II), representative compounds of this class, viz. 1-6, 8 and 10 were tested for alkylating ability using a modification of the method of Wheeler and Chumley. This method measured the absorbance at 540 nm of the alkylated product of 4-(4-nitrobenzyl)pyridine.
^a A solution of the test sample (12 micromoles) in 1 ml of acetone,
ml of distilled water and 1 ml of TrisHCl buffer (pH 7.4) was incubated
with 4(4-nitrobenzyl) pyridine (148 micromoles in 0.4 ml of acetone) for
hr at 37°C. Following additon of 2 ml of acetone and 1.5 ml of 0.2
M NaOH, the material was extracted with 5 ml of ethyl acetate. The
absorbance was determined at 540 nm 30 seconds after the addition of the
sodium hydroxide solution. The greater the absorbance value, the greater
the degree of alkylation
^b Relative Alkylating activity = (O.D. for test sample/O.D. for […]

L1210 leukemia = assay: Survival time of mice bearing the L1210 leukemia; assay type: in vivo, mouse (CDF-1 mice); conditions: for Av. Change wt. %: L1210 mice; for response vs control in vivo at 50 mg/kg / response vs control in vivo at 100 mg/kg / response vs control in vivo at 150 mg/kg: Mus musculus, read-out: % T/C; for Antineoplastic Activity (max. % T/C from Table III): Table II, L1210 leukemia; for activity against the L1210 leukemia (in words): mouse, in vivo; for maximum % T/C, L1210 leukemia: comparison compounds
Excerpt: The ascites cell forms of the L1210 leukemia, Sarcoma 180 and P388 leukemia were propagated in CDF-1 mice. […] Mice were weighed during the course of the experiments, and the percentage change in body weight from the onset to termination of therapy was used as an indication of host toxicity.
Each value represents the average of 5 animals per group.

Sarcoma 180 = assay: Survival time of mice bearing Sarcoma 180; assay type: in vivo, mouse (CDF-1 mice)
Protocol: The tumor-inhibitory properties of compounds 1-12 were determined by measuring their effects on the survival time of mice bearing the L1210 leukemia and in some cases Sarcoma 180, and the P388 leukemia. The ascites cell forms of the L1210 leukemia, Sarcoma 180 and P388 leukemia were propagated in CDF-1 mice. Transplantation was carried out using donor mice bearing 7-day tumor growths; experimental details are described in Agrawal et al., J. Med. Chem., 11, 700, 1968, incorporated herein by reference. Mice were weighed during the course of the experiments, and the percentage change in body weight from the onset to termination of therapy was used as an indication of host toxicity.

B16 melanoma cells = assay: Cytotoxicity: colony-forming ability of B16 melanoma cells; assay type: cell-based; conditions: Mus musculus, 1 hour exposure, 12 days incubation, average of two determinations, read-out: LD50 (the source's name)
Protocol: The cytotoxicity of compounds 8 and 12 was determined by measuring their effects on the colony-forming ability of B16 melanoma cells. The cells were maintained in Eagle's minimum essential medium supplemented with 10% fetal bovine serum. To obtain exponentially growing B16 melanoma cells, a 25 cm^2 flask was inoculated with 10^5 cells for two days before addition of drug. The cell monolayer was exposed to various concentrations of compound for 1 hour. After exposure, the layer was washed twice with PBS to remove the compound. The cells were harvested with 2 mM EDTA in PBS, and 200 cells were plated on a 60 mm dish with 5 mL of medium. After incubation for 12 days, the colonies were stained with crystal violet and counted. […] The LD50 was determined from the individual dose-response curves.

[2] = 50 mg/kg once daily for six days
[3] = 100 mg/kg once daily for six days
[4] = 150 mg/kg once daily for six days
[5] = 144 h, 50 mg/kg once daily for six days, L1210
[6] = 144 h, 100 mg/kg once daily for six days, L1210
[7] = 144 h, 150 mg/kg once daily for six days, L1210

| Compound | Max. % T/C (B16 melanoma) | Av. Change in wt., % (B16 melanoma) | Relative Alkylating Activity [1] | Average Survival Time of Treated Animals, days ± SE (L1210 leukemia; [2]) | Av. Change wt. % (L1210 leukemia; [2]) | Average Survival Time of Treated Animals, days ± SE (L1210 leukemia; [3]) | Av. Change wt. % (L1210 leukemia; [3]) | Average Survival Time of Treated Animals, days ± SE (L1210 leukemia; [4]) | Av. Change wt. % (L1210 leukemia; [4]) | response vs control in vivo at 50 mg/kg (L1210 leukemia; [5]) | response vs control in vivo at 100 mg/kg (L1210 leukemia; [6]) | response vs control in vivo at 150 mg/kg (L1210 leukemia; [7]) | Antineoplastic Activity (max. % T/C from Table III) (L1210 leukemia) | activity against the L1210 leukemia (in words) (L1210 leukemia) | alkylating activity / absorbance (in words) [1] | further results |
| --- | --- | --- | --- | --- | --- | --- | --- | --- | --- | --- | --- | --- | --- | --- | --- | --- |
| Cc1ccc(S(=O)(=O)N(C)NS(=O)(=O)c2ccccc2)cc1 [Compound 1, N'-benzenesulfonyl-N-methyl-N-(p-toluenesulfonyl)hydrazine] | 168 % T/C | +8.5% | 118 | 15.0 ± 1.4 days | +2.0% | 10.6 ± 0.2 days | +5.4% | 10.8 ± 0.5 days | -2.7% | 163% | 115% | 117% | 163 % T/C |  |  |  |
| COc1ccc(S(=O)(=O)NN(C)S(=O)(=O)c2ccc(C)cc2)cc1 [Compound 2, N'-(p-methoxybenzenesulfonyl)-N-methyl-N-(p-toluenesulfonyl)hydrazine] | 200 % T/C | +9.1% | 95 | 10.8 ± 0.6 days | +7.7% | 15.0 ± 2.3 days | +7.8% | 13.2 ± 2.2 days | +2.9% | 117% | 163% | 143% | 163 % T/C |  |  |  |
| Cc1ccc(S(=O)(=O)N(C)NS(=O)(=O)c2ccc(Cl)cc2)cc1 [Compound 3, N'-(p-chlorobenzenesulfonyl)-N-methyl-N-(p-toluenesulfonyl)hydrazine] | 171 % T/C | +2.9% | 135 | 17.4 ± 1.4 days | +3.7% | 10.8 ± 0.6 days | +10.0% | 11.2 ± 1.3 days | +6.0% |  | 117% | 122% | 189 % T/C | active against the L1210 leukemia |  | rate of decomposition to a reactive species (in words) [1]: decomposed less rapidly than compound 10; response vs control in vivo at 50 mg/kg (L1210 leukemia; L1210, 144 h): 189% |
| COc1ccc(S(=O)(=O)N(C)NS(=O)(=O)c2ccc(C)cc2)cc1 [Compound 4] | 151 % T/C | -14.0% | 82 | 10.2 ± 0.5 days | +12.6% | 10.2 ± 0.2 days | +14.8% | 10.4 ± 0.2 days | +9.8% | 111% | 111% | 113% | 113 % T/C | virtually inactive | lowest |  |
| Cc1ccc(S(=O)(=O)NN(C)S(=O)(=O)c2ccc(Cl)cc2)cc1 [Compound 5, N-(p-chlorobenzenesulfonyl)-N-methyl-N'-(p-toluenesulfonyl)hydrazine] | 162 % T/C | -0.4% | 169 | 10.4 ± 0.4 days | +5.1% | 13.0 ± 2.2 days | +5.5% | 10.0 ± 0.3 days | -4.6% | 113% | 141% | 109% | 141 % T/C | active against the L1210 leukemia |  | rate of decomposition to a reactive species (in words) [1]: decomposed less rapidly than compound 10 |
| CN(NS(=O)(=O)c1ccccc1)S(=O)(=O)c1ccccc1 [Compound 7, N,N'-bis(benzenesulfonyl)-N-methylhydrazine] | 175 % T/C | -2.3% |  | 13.2 ± 0.7 days | -4.8% | 11.6 ± 0.2 days | -5.2% | 9.4 ± 0.4 days | -13.5% | 147% | 129% | 104% |  |  |  | Max. % T/C vs. Sarcoma 180 (Sarcoma 180; at 100 mg/kg): 203 % T/C |
| Cc1ccc(S(=O)(=O)NN(C)S(=O)(=O)c2ccc(C)cc2)cc1 [Compound 8, N,N'-bis (4-toluenesulfonyl)-N-methylhydrazine] | 165 % T/C | -2.7% | 100 | 14.0 ± 1.3 days | +3.7% | 13.6 ± 2.4 days | +0.8% |  |  | 147% | 143% |  | 147 % T/C |  |  | dosage range of activity against the B16 melanoma (B16 melanoma; B16 melanoma in mice): 50 to 150 mg/kg; Max. % T/C vs. Sarcoma 180 (Sarcoma 180; at 50 mg/kg): 197 % T/C |
| CN(NS(=O)(=O)c1ccc(Cl)cc1)S(=O)(=O)c1ccc(Cl)cc1 [Compound 10, N,N'-bis (p-chlorobenzenesulfonyl)-N-methylhydrazine] | 163 % T/C | +4.8% | 185 | 9.2 ± 0.2 days | +4.1% | 11.4 ± 0.8 days | +4.0% | 11.8 ± 1.1 days | +1.3% | 97% | 120% |  | 124 % T/C | virtually inactive | highest | rate of decomposition to a reactive species (in words) [1]: rapid decomposition to a reactive species; response vs control in vivo at 150 mg/kg (L1210 leukemia; L1210, 144 h): 124% |
| CCS(=O)(=O)NN(C)S(=O)(=O)c1ccc(C)cc1 [Compound 13] | 174 % T/C | -1.1% |  |  |  |  |  |  |  |  |  |  |  |  |  | activity against the B16 melanoma (in words) (B16 melanoma; mouse, in vivo): appreciable levels of activity against the B16 melanoma; IC50 (B16 melanoma cells): 160 nM |
| O=S(=O)(NNS(=O)(=O)c1ccccc1)c1ccccc1 [N,N'-bis(benzenesulfonyl )hydrazine, reference compound] |  |  |  |  |  |  |  |  |  |  |  |  |  | inactive against the L1210 leukemia | negligible alkylating activity | absorbance at 540 nm (alkylating activity) [1]: 0; maximum % T/C, L1210 leukemia (L1210 leukemia): 101 % T/C; activity against the L1210 leukemia (in words) (L1210 leukemia; listed as N,N'-bis(benzenesulfonyl)hydrazine): inactivity |
| CN(NC(=O)c1ccccc1)C(=O)c1ccccc1 [N,N'-dibenzoyl-N-methylhydrazine, reference compound] |  |  |  |  |  |  |  |  |  |  |  |  |  | inactive against the L1210 leukemia | negligible alkylating activity | absorbance at 540 nm (alkylating activity) [1]: 10; maximum % T/C, L1210 leukemia (L1210 leukemia): 97 % T/C |
